Columns and labels:
Assay type in all cases: in vivo
[1] = test system: beet; assay: Test Example 5: effect on crop by foliage application, plastic box (symbol f); conditions: 320 g/ha, 3 weeks after application
Outline: (§1)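 Greenhouse test at 25° C. to 30° C. Seeds of crops and weeds were spot-sown in boxes of sterilized diluvial soil under roughly 1.5 cm soil cover, then grown for foliage treatment.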

[2] = test system: Stellaria media; assay: Test Example 5: herbicidal effect by foliage application, plastic box (symbol P); conditions: 320 g/ha, 3 weeks after application
Outline: (§2)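 Visual herbicidal score, taken three weeks post-application, of seedlings sprayed on the foliage with water-diluted emulsion at a predetermined amount; plants were 14 days old, greenhouse-raised at 25° C. to 30° C.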

[3] = test system: corn; assay: Test Example 5: effect on crop by foliage application, plastic box (symbol c); conditions: 320 g/ha, 3 weeks after application
Outline: as §1

[4] = test system: Amaranthus retroflexus; assay: Test Example 4: herbicidal effect by soil treatment (symbol N); conditions: 320 g/ha
Outline: (§3)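 Seeds were sown in sterilized diluvial soil, covered with about 1.5 cm of soil, and the soil surface was sprayed with a water-diluted emulsion of the compound at a predetermined rate. Plants grew in a greenhouse at 25° C. to 30° C.; effects were scored visually 3 weeks after application.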

[5] = test system: soybean; assay: Test Example 4: effect on crop by soil treatment (symbol d); conditions: 320 g/ha
Outline: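 Steps: fill box with sterilized diluvial soil; sow seed spot-like; cover with ~1.5 cm soil; grow in greenhouse (25° C. to 30° C.).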

[6] = test system: rapeseed; assay: Test Example 5: effect on crop by foliage application, plastic box (symbol g); conditions: 320 g/ha, 3 weeks after application
Outline: as §1

[7] = test system: Avena fatua; assay: Test Example 5: herbicidal effect by foliage application, plastic box (symbol I); conditions: 320 g/ha, 3 weeks after application
Outline: as §2

[8] = test system: Lolium multiflorum Lam.; assay: Test Example 4: herbicidal effect by soil treatment (symbol K); conditions: 320 g/ha
Outline: as §3

[9] = test system: directly sowed rice plant; assay: Test Example 3: effect on crop by foliage application, Wagner pot (symbol b); conditions: application herbicide amount 320 g/ha
Outline: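 Wagner pot (1/10000 are), alluvial soil, submerged 0.1–0.5 cm; sown E. crus-galli var. crus-galli, L. chinensis, C. difformis, rice; greenhouse 25–30 °C.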

[10] = test system: Abutilon theophrasti; assay: Test Example 4: herbicidal effect by soil treatment (symbol M); conditions: 320 g/ha
Outline: as §3

[11] = test system: Digitaria ciliaris; assay: Test Example 4: herbicidal effect by soil treatment (symbol F); conditions: 320 g/ha
Outline: as §3

[12] = test system: Setaria viridis; assay: Test Example 5: herbicidal effect by foliage application, plastic box (symbol G); conditions: 320 g/ha, 3 weeks after application
Outline: as §2

[13] = test system: Leptochloa chinensis; assay: Test Example 3: herbicidal effect by foliage application, Wagner pot (symbol D); conditions: application herbicide amount 320 g/ha
Outline: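 Foliar spray of a water-diluted emulsion at a predetermined herbicide amount, applied to 14-day-old plants. Seedlings were raised in flooded alluvial soil (0.1–0.5 cm water) at 25–30 °C in a greenhouse. Injury was rated after 3 weeks against fixed criteria.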

[14] = test system: Abutilon theophrasti; assay: Test Example 5: herbicidal effect by foliage application, plastic box (symbol M); conditions: 320 g/ha, 3 weeks after application
Outline: as §2

[15] = test system: Lolium multiflorum Lam.; assay: Test Example 5: herbicidal effect by foliage application, plastic box (symbol K); conditions: 320 g/ha, 3 weeks after application
Outline: as §2

[16] = test system: wheat; assay: Test Example 5: effect on crop by foliage application, plastic box (symbol e); conditions: 320 g/ha, 3 weeks after application
Outline: as §1

[17] = test system: Echinochloa crus-galli var. crus-galli; assay: Test Example 4: herbicidal effect by soil treatment (symbol H); conditions: 320 g/ha
Outline: as §3

[18] = test system: Apera spica-venti; assay: Test Example 5: herbicidal effect by foliage application, plastic box (symbol L); conditions: 320 g/ha, 3 weeks after application
Outline: as §2

[19] = test system: Chenopodium album; assay: Test Example 5: herbicidal effect by foliage application, plastic box (symbol O); conditions: 320 g/ha, 3 weeks after application
Outline: as §2

[20] = test system: corn; assay: Test Example 4: effect on crop by soil treatment (symbol c); conditions: 320 g/ha
Outline: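 Greenhouse culture at 25° C. to 30° C. followed sowing of seed in spots on sterilized diluvial soil with a soil cover close to 1.5 cm thick.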

| SMILES | f: beet, effect on crop (criteria 0-5) [1] | P: Stellaria media, herbicidal effect (criteria 0-5) [2] | c: corn, effect on crop (criteria 0-5) [3] | N: Amaranthus retroflexus, herbicidal effect grade [4] | d: soybean, effect grade on crop [5] | g: rapeseed, effect on crop (criteria 0-5) [6] | I: Avena fatua, herbicidal effect (criteria 0-5) [7] | K: Lolium multiflorum Lam., herbicidal effect grade [8] | effect on crop b (directly sowed rice plant), grade 0-5 [9] | M: Abutilon theophrasti, herbicidal effect grade [10] | F: Digitaria ciliaris, herbicidal effect grade [11] | G: Setaria viridis, herbicidal effect (criteria 0-5) [12] | herbicidal effect on D (Leptochloa chinensis), grade 0-5 [13] | M: Abutilon theophrasti, herbicidal effect (criteria 0-5) [14] | K: Lolium multiflorum Lam., herbicidal effect (criteria 0-5) [15] | e: wheat, effect on crop (criteria 0-5) [16] | H: Echinochloa crus-galli var. crus-galli, herbicidal effect grade [17] | L: Apera spica-venti, herbicidal effect (criteria 0-5) [18] | O: Chenopodium album, herbicidal effect (criteria 0-5) [19] | c: corn, effect grade on crop [20] |
| --- | --- | --- | --- | --- | --- | --- | --- | --- | --- | --- | --- | --- | --- | --- | --- | --- | --- | --- | --- | --- |
| COCCOC(=O)OC1=C(c2c(C)cc(C)cc2C)C(=O)C(CC(C)=NOC)C1 (stereo not shown) [1-147] | 3 (Herbicidal ratio of 40% or higher and lower than 70%) | 3 (Herbicidal ratio of 40% or higher and lower than 70%) | 5 (Herbicidal ratio of 90% or more (almost completely withered)) | 5 (Herbicidal ratio of 90% or more (almost completely withered)) | 0 (Herbicidal ratio of 5% or lower (almost no effect)) | 4 (Herbicidal ratio of 70% or higher and lower than 90%) | 5 (Herbicidal ratio of 90% or more (almost completely withered)) | 5 (Herbicidal ratio of 90% or more (almost completely withered)) | 5 (Herbicidal ratio of 90% or more (almost completely withered)) | 5 (Herbicidal ratio of 90% or more (almost completely withered)) | 5 (Herbicidal ratio of 90% or more (almost completely withered)) | 5 (Herbicidal ratio of 90% or more (almost completely withered)) | 5 (Herbicidal ratio of 90% or more (almost completely withered)) | 4 (Herbicidal ratio of 70% or higher and lower than 90%) | 5 (Herbicidal ratio of 90% or more (almost completely withered)) | 5 (Herbicidal ratio of 90% or more (almost completely withered)) | 5 (Herbicidal ratio of 90% or more (almost completely withered)) | 5 (Herbicidal ratio of 90% or more (almost completely withered)) | 1 (Herbicidal ratio of 5% or higher and lower than 20%) | 5 (Herbicidal ratio of 90% or more (almost completely withered)) |
| CON=C(C)CC1CC(OC(=O)N2CCCCC2)=C(c2c(C)cc(C)cc2C)C1=O (stereo not shown) [1-151] | 2 (Herbicidal ratio of 20% or higher and lower than 40%) | 0 (Herbicidal ratio of 5% or lower (almost no effect)) | 4 (Herbicidal ratio of 70% or higher and lower than 90%) | 0 (Herbicidal ratio of 5% or lower (almost no effect)) | 0 (Herbicidal ratio of 5% or lower (almost no effect)) | 4 (Herbicidal ratio of 70% or higher and lower than 90%) | 5 (Herbicidal ratio of 90% or more (almost completely withered)) | 5 (Herbicidal ratio of 90% or more (almost completely withered)) | 5 (Herbicidal ratio of 90% or more (almost completely withered)) | 0 (Herbicidal ratio of 5% or lower (almost no effect)) | 5 (Herbicidal ratio of 90% or more (almost completely withered)) | 5 (Herbicidal ratio of 90% or more (almost completely withered)) | 4 (Herbicidal ratio of 70% or higher and lower than 90%) | 3 (Herbicidal ratio of 40% or higher and lower than 70%) | 5 (Herbicidal ratio of 90% or more (almost completely withered)) | 3 (Herbicidal ratio of 40% or higher and lower than 70%) | 0 (Herbicidal ratio of 5% or lower (almost no effect)) | 5 (Herbicidal ratio of 90% or more (almost completely withered)) | 0 (Herbicidal ratio of 5% or lower (almost no effect)) | 0 (Herbicidal ratio of 5% or lower (almost no effect)) |
